According to ChEMBL document CHEMBL1201862, “PubChem BioAssay data set” (2004):
Calls of active or inactive are those of the source.

Assays:
[1] = inhibitors of fibronectin matrix deposition, dose response, AH1F cells, Alexa488-FN fluorescence, cherry-picks (AID 1035475); assay type: functional, cell-based
HEK293 [2] = assay: NOD1 signaling inhibitors, primary screen, cell-based, luminescence, uHTS (AID 1578); assay type: functional; conditions: Homo sapiens
[3] = target: Nucleotide-binding oligomerization domain-containing protein 2 (Homo sapiens, UniProt Q9HC29); assay: NOD2 signaling inhibitors, cell-based, luminescence, uHTS, HEK293 (AID 1566); assay type: functional
HEK293 [4] = assay: cells; assay type: functional, cell-based; conditions: Homo sapiens
HEK293 [5] = assay: NOD2 signaling inhibitors in MDP-stimulated cells, cell-based, uHTS, luminescence (AID 2001); assay type: functional; conditions: Homo sapiens
[6] = target: T1, Sentrin-specific protease 8 (Homo sapiens, UniProt Q96LD8); assay type: functional;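 note: luminescence read-out of SENP8 inhibition, dose-response confirmation following an ultra-high-throughput screen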
T1 sequence (Q96LD8 whole entry): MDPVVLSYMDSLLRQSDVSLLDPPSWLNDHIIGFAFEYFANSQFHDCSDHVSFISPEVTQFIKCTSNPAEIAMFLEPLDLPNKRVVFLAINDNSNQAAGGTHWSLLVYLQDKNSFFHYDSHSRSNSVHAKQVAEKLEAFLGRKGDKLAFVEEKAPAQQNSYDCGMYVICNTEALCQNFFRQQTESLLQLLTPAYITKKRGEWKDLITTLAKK

HEK293 [7] = assay: cells; assay type: functional, cell-based; conditions: Homo sapiens; remark: listed apart in the source
HEK293 [8] = assay: cells; assay type: functional, cell-based; conditions: Homo sapiens; remark: listed apart in the source
[9] = HepG2 cell cytotoxicity, dose response, cytotoxicity control, ATP luminescence, cherry-pick, activator set 2 (AID 1053143); assay type: functional, cell-based
[10] = target: T2, Sentrin-specific protease 7 (Homo sapiens, UniProt Q9BQF6); assay type: functional;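 note: Luminescence-based dose-response confirmation of ultra-high-throughput screening hits, measuring inhibition of SENP7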
T2 sequence (Q9BQF6 whole entry): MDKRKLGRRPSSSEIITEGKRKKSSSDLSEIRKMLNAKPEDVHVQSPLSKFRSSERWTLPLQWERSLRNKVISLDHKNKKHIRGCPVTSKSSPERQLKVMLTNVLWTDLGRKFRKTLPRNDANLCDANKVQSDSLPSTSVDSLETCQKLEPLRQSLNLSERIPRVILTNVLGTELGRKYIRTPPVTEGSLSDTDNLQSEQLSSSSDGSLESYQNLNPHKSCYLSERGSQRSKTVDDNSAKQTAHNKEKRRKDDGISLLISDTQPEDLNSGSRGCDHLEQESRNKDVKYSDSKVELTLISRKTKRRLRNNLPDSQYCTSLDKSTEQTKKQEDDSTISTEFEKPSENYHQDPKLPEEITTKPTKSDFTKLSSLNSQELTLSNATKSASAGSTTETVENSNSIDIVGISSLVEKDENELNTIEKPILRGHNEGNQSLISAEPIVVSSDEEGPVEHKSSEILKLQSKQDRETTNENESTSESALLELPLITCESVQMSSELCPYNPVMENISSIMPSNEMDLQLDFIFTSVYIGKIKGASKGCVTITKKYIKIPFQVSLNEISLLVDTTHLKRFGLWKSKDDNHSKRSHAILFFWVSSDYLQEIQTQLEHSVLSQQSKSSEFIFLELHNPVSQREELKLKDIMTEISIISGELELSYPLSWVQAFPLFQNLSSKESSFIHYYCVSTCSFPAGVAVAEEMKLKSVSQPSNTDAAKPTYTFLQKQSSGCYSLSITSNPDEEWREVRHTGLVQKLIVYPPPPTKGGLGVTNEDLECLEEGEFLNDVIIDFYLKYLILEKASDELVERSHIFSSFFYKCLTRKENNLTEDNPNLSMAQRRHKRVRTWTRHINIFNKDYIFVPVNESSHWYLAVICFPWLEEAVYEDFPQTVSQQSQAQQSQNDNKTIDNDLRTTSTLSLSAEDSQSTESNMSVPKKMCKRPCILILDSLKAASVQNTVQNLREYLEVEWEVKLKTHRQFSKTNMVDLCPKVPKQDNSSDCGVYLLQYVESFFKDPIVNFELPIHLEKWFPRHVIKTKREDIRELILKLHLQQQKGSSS

[11] = microbe, parasite or virus in culture; assay type: functional; conditions: Mycobacterium tuberculosis
[12] = target: T3, Sentrin-specific protease 6 (Homo sapiens, UniProt Q9GZR1); assay type: functional;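 note: Luminescence-based dose-response confirmatory assay of SENP6 inhibition, following up an ultra-high-throughput screen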
T3 sequence (Q9GZR1 whole entry): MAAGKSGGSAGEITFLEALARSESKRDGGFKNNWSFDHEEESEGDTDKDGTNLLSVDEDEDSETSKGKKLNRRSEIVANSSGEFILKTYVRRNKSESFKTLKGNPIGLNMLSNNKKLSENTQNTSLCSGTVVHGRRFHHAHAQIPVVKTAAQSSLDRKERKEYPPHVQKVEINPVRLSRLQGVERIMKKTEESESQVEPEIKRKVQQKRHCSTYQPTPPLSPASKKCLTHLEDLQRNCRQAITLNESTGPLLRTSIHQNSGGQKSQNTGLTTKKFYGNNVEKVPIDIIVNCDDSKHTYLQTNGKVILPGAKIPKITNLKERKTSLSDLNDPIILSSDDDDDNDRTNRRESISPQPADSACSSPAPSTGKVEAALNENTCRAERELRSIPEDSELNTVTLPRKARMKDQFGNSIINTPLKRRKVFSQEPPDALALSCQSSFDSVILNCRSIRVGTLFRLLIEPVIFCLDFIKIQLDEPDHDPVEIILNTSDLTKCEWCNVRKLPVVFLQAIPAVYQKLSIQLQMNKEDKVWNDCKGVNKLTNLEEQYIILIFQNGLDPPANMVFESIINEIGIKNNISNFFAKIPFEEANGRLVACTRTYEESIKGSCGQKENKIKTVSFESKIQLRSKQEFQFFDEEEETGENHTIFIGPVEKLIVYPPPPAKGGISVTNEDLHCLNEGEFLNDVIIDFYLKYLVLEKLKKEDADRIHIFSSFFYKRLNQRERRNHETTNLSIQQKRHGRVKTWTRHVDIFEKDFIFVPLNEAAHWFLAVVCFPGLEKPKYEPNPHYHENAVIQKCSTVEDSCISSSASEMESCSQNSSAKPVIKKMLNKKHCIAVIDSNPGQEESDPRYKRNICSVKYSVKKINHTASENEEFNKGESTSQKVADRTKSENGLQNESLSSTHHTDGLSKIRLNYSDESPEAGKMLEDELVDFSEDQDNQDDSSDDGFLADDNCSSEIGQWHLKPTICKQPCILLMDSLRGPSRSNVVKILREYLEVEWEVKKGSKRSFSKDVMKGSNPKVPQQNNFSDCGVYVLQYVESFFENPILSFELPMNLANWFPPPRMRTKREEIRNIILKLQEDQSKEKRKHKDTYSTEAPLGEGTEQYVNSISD

[13] = target: T4, Oxysterols receptor LXR-beta (Homo sapiens, UniProt P55055); assay type: functional, cell-based;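 note: agonist activity at LXR measured by a cell-based luminescence readout across a dose range, run as a counterscreen for daf-12 agonists; HEK293 cells with Gal4-LXR fusion and GAL4-driven luciferase reporter; potency for activation of Gal4-LXR reporter so compounds are agonists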
T4 sequence (P55055 whole entry): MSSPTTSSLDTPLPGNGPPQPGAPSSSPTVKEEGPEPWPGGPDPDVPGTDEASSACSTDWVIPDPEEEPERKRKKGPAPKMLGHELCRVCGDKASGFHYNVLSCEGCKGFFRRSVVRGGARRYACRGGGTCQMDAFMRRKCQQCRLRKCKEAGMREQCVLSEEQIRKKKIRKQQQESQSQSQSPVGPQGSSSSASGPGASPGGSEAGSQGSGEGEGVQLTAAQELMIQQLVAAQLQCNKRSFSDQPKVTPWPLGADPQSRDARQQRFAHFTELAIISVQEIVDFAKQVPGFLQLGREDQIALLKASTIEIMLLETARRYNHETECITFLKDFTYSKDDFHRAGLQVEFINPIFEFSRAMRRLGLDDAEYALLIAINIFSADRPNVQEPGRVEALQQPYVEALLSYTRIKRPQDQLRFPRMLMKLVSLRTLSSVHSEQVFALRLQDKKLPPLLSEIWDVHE

[14] = Late stage assay provider results from the probe development effort to identify selective inhibitors of heat shock protein 90 (HSP90): Absorbance-based cell proliferation assay in MCF7 cells.; assay type: functional
[15] = Late stage assay provider results from the probe development effort to identify selective inhibitors of heat shock protein 90 (HSP90): Absorbance-based cell proliferation assay in SKBR3 cells.; assay type: functional; conditions: SK-BR-3
[16] = target: Metabotropic glutamate receptor 3 (Rattus norvegicus, UniProt P31422); assay: mGlu3 negative allosteric modulator potency, dose response, HEK/GIRK cells, thallium flux, rat (AID 651839); assay type: functional
Metabotropic glutamate receptor 3, sequence (P31422 whole entry): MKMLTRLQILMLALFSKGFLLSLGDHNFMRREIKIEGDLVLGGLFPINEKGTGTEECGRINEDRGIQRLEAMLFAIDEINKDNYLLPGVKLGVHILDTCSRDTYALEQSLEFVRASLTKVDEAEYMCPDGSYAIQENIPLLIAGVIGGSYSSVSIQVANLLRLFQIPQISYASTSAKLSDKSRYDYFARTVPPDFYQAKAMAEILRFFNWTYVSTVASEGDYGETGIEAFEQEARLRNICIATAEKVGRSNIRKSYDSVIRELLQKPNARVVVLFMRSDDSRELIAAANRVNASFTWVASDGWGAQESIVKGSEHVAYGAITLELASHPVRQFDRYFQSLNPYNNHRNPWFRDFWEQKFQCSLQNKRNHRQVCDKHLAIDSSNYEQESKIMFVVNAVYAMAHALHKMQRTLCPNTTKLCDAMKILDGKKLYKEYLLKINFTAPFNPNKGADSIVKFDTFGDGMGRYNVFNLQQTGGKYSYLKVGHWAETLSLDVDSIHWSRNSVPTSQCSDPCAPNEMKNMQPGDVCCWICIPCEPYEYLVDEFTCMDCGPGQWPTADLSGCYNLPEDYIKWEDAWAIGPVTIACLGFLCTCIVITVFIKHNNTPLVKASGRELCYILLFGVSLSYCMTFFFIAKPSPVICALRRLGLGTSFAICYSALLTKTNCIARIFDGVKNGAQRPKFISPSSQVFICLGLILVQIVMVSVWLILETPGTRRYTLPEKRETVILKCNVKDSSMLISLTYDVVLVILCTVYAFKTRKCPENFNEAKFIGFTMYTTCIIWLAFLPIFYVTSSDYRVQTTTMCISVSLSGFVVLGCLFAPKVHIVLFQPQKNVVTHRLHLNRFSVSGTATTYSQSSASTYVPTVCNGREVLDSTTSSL

Nucleotide-binding oligomerization domain-containing protein 2, sequence (Q9HC29 whole entry, the tested form may be a part): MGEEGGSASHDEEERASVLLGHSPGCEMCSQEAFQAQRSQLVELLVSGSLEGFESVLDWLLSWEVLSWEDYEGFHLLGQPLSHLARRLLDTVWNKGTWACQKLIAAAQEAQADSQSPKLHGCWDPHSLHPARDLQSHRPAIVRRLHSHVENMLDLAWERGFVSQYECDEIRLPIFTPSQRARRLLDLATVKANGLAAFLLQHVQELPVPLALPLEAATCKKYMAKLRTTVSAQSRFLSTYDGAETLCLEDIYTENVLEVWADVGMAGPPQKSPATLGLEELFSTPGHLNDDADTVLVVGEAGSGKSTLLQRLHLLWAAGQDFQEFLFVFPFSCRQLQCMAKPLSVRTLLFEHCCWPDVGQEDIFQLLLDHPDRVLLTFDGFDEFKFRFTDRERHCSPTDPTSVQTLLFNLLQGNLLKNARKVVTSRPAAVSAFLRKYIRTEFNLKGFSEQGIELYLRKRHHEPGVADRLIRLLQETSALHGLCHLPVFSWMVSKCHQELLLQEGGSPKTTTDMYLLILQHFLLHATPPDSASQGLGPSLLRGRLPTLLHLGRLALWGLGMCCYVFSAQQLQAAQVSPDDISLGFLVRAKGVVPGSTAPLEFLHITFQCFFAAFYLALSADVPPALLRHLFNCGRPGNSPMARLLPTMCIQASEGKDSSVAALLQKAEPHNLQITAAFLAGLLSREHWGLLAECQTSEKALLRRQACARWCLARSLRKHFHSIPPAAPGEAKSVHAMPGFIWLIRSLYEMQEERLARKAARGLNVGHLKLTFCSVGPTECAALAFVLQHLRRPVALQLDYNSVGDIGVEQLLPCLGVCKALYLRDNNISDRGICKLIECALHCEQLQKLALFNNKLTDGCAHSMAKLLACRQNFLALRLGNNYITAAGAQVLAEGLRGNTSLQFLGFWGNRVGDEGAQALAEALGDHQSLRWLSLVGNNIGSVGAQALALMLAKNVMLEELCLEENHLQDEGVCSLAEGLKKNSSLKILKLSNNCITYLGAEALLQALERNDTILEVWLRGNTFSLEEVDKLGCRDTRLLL

In the case of `C[C@@H]1CN([C@H](C)CO)C(=O)c2cccc(NC(=O)Nc3ccc(C(F)(F)F)cc3)c2O[C@H]1CN(C)C(=O)Nc1cccc2ccccc12`, the AC50 [1] is reported as 57.7 µM (active).

In the case of `CCOc1cccc(/C=C/c2ccc3cccc(O)c3n2)c1O`, the EC50 (HEK293 [2]) is reported as > 20 µM (inactive), the EC50 [3] is reported as > 20 µM (inactive) and the IC50 (HEK293 [4]) is reported as > 20 µM (inactive). For the same molecule, the IC50 (HEK293 [5]) was 3.71 µM (inactive), the IC50 [6] was > 100 µM (inactive) and the IC50 (HEK293 [7]) was 11.5 µM (active). The IC50 (HEK293 [8]) was > 20 µM (inactive), the AC50 [9] was 26 µM (active) and the IC50 [10] was 4.32 µM (active). For the same molecule, the CC50 [11] was 35.7 µM (active) and the IC50 [12] was 7.66 µM (active).

For `Cc1scc(C(=O)N/N=C/c2ccsc2)c1C`, the EC50 [13] was > 67.6 µM (inactive).

In the case of `O=C(O)CCCCOc1ccc2cc(Br)c(=O)oc2c1`, the IC50 [14] is reported as > 100 µM (inactive) and the IC50 [15] is reported as > 100 µM (inactive).

In the case of `COc1ccc(-c2ccc3cc(C(=O)N4CCCC(CO)C4)ccc3c2)c(OC)c1` (stereo unspecified), the IC50 [16] is reported as 9.87 µM (active).
